“And” between values parts separate entries of the source, which are not always exact repeats. Identical values can stand only once.
What was measured:
[1] = Photochromic property of photochromic laminate made by coating method; assay type: physicochemical; details: for Residual ratio / Color developing density at 23°C: laminate by coating method; for Residual ratio: A96/A0 x 100 after 96 hours accelerated degradation, xenon weather meter X25; for Color developing density at 23°C: absorbance difference after 240 seconds irradiation at the maximum absorption wavelength of the same line
Description: First, the photochromic compound obtained in Example 1, a photoinitiator, and a polymerizable compound were mixed to obtain a curable composition.
The polymerizable compound was a combination of the following radical polymerizable monomers:
Polyethylene glycol dimethacrylate (average molecular weight: 736): 42 parts by mass • Polyethylene glycol dimethacrylate (average molecular weight: 536): 12 parts by mass • Trimethylolpropane methacrylate: 38 parts by mass γ-Methacryloyloxypropyltrimethoxysilane: 2 parts by mass Glycidyl methacrylate: 1 part by mass.
Note that, in the curable composition, the photochromic compound was added in an amount of 0.25 mmol taking a total amount of the radical polymerizable monomers as 100 g.
Phenylbis(2,4,6-trimethylbenzoyl)phosphine oxide (photoinitiator: Omnirad 819): 0.3 parts by mass Ethylene bis(oxyethylene) bis[3-(5-tert-butyl-4-hydroxy-m-tolyl) propionate] (stabilizer, Irganox 245): 1 part by mass Bis(1,2,2,6,6-pentamethyl-4-piperidyl)sebacate: 3 parts by mass Leveling agent (L-7001) manufactured by DuPont Toray Specialty Materials K.K.: 0.1 parts by mass.
Using this curable composition, a photochromic laminate was obtained by a lamination method including polymerization as follows.
First, a thiourethane plastic lens with a center thickness of 2 mm and a refractive index of 1.60 was prepared as an optical substrate. Note that, the thiourethane plastic lens had been alkaline-etched in a 10% sodium hydroxide aqueous solution at 50°C for 5 minutes in advance, and then thoroughly washed with distilled water.
A spin coater (1H-DX2, manufactured by MIKASA CO., LTD) was used to coat a surface of the above-mentioned plastic lens with a moisture-curing primer (product name: TR-SC-P, manufactured by Tokuyama Corporation) at a rotation speed of 70 rpm for 15 seconds, followed by 1000 rpm for 10 seconds. Then, about 2 g of the photochromic curable composition obtained above was spin-coated at a rotation speed of 60 rpm for 40 seconds, followed by 600 rpm for 10 to 20 seconds so as to achieve a photochromic coating layer with a thickness of 40 µm.
The lens of which surface had been coated with the photochromic curable composition (photochromic coating layer) was irradiated with light for 90 seconds in a nitrogen gas atmosphere using a metal halide lamp with an output of 200 mW/cm^2 to cure the coating. The resultant was then further heated at 110°C for 1 hour to produce a photochromic laminate with a photochromic layer.
Photochromic laminates were produced using the photochromic compounds obtained in Examples 2 to 20 in the same manner as in Example 21.
Photochromic laminates were obtained using photochromic compounds represented by Formulae (A) to (D) below in the same manner as in Example 21. [drawing 89] [drawing 90] [drawing 91] [drawing 92] [drawing 93]
The resulting photochromic laminates were evaluated by the below-mentioned methods. • (1) Photochromic property • [1] Maximum absorption wavelength (λmax): This is the maximum absorption wavelength after color development determined by a spectrophotometer manufactured by Otsuka Electronics Co., Ltd. (instantaneous multichannel photo detector MCPD3000) and was used as an index of a color tone upon color development. • [2] Color developing density at 23°C (A23): This is a difference between an absorbance {ε(240)} after irradiation with light at 23°C for 240 seconds and an absorbance ε(0) when not irradiated with light at the maximum absorption wavelength and was used as an index of a color developing density. The higher this value is, the better a photochromic property is. • [3] Color fading half-life at 23°C [τ1/2 (sec).)]: This is a period of time taken by an absorbance at the maximum absorption wavelength of a sample to decrease to 1/2 of {ε(240)-ε(0)} when irradiation is stopped after irradiation with light at 23°C for 240 seconds, and was used as an index of a color fading rate. The shorter this period of time is, the faster the color fading rate is. • [4] […]

[2] = Solubility of photochromic compound in polymerizable compounds; assay type: physicochemical; design: key: 1: No haze is seen when checked under transmission of light, and the sample is completely dissolved.; 2: A very thin haze is seen to the extent that it can be seen under transmission of light.; 3: A thin haze that can be seen under transmission of light is seen.; 4: A haze can be seen even without transmission of light; details: 35 µmol/g in radical polymerizable compound composition of Example 21, 65 to 70°C; for Dissolution for 15 min / Dissolution for 30 min / Dissolution for 45 min: stirring and ultrasonic irradiation; for Dissolution for 1 hour: head reads 60 min in Tables 8 to 14
Protocol: The photochromic compounds according to Examples and Comparative examples shown in Table 5 were evaluated for solubility in polymerizable compounds.
Specifically, a sample was prepared by adding each of the photochromic compounds to the composition, which consisted of a radical polymerizable compound, among the curable compositions used in Example 21.
Note that, this test was performed using "YOKAI-KUN USS-1" manufactured by NIHONSEIKI KAISHA LTD. under the following conditions: • Dissolution temperature: 65 to 70°C • Stirring condition: Stirring dial of 5. Ultrasonic irradiation condition: Irradiation interval of 3 sec.
Dissolution was checked every 15 minutes up to 1 hour later, the sample was visually checked by transmitting light through the sample, and a degree of dissolution was evaluated according to the following four evaluation criteria.
• 1: No haze is seen when checked under transmission of light, and the sample is completely dissolved. • 2: A very thin haze is seen to the extent that it can be seen under transmission of light. • 3: A thin haze that can be seen under transmission of light is seen. • 4: A haze can be seen even without transmission of light.
A shorter time required for the evaluation result to be 1 means higher solubility.

Residual ratio [1] | Dissolution for 15 min [2] | Dissolution for 30 min [2] | Dissolution for 45 min [2] | Dissolution for 1 hour [2] | Color fading half-life at 23°C [1] | Color developing density at 23°C [1] | SMILES
62% | 3 | 3 | 2 | 1 | – | – | CCCCC1(C)c2cc(N(C)c3ccccc3)ccc2-c2c1c1c(c3cc(OC)c(OC)cc23)OC(c2ccc(OC)cc2)(c2ccc(OCCC)cc2)C=C1 (stereo not drawn) [Formula (73-2)]
64% | 4 | 3 | 2 | 1 | 90 s | – | CCC1(C)c2cc(OC)ccc2-c2c1c1c(c3cc(OC)c(Sc4c(C)cccc4C)cc23)OC(c2ccc(OC)cc2)(c2ccc(N3CCOCC3)cc2)C=C1 (stereo not drawn) [Formula (74-2)]
67% | 3 | 3 | 1 | 1 | – | – | CCCCC1(CC)c2cc(OC)ccc2-c2c1c1c(c3cc(OC)c(Sc4c(C)cccc4C)cc23)OC(c2ccc(OC)cc2)(c2ccc(N3CCOCC3)cc2)C=C1 (stereo not drawn) [Formula (77-1)]
64% | 3 | 2 | 1 | 1 | – | – | CCCC1(CC)c2ccccc2-c2c1c1c(c3cc(OC)c(-c4c(OC)cc(OC)cc4OC)cc23)OC(c2ccc(OC)cc2)(c2ccc(N(c3ccccc3)c3ccccc3)cc2)C=C1 (stereo not drawn) [Formula (78-2)]
– | 3 | 2 | 1 | 1 | 78 s | – | CCCC1(CC)c2cc(C)ccc2-c2c1c1c(c3cc(OC)c(-c4ccc(N5CCOCC5)cc4)cc23)OC(c2ccc(OC)cc2)(c2ccc(N3CCOCC3)cc2)C=C1 (stereo not drawn) [Formula (79-2)]
79% | 3 | 2 | 1 | 1 | 70 s | 1.09 - | CCCCC1(CC)c2ccccc2-c2c1c1c(c3cc(OC)c(N(C)c4ccccc4)cc23)OC(c2ccc(OC)cc2)(c2ccc(OC)cc2)C=C1 (stereo not drawn) [Formula (80-2)]
64% | 3 | 2 | 1 | 1 | 159 s | – | CCCOc1ccc(C2(c3ccc(OC)cc3)C=Cc3c4c(c5cc(OC)c(OC)cc5c3O2)-c2ccc(N(C)c3ccccc3)cc2C4(CC)CCC)cc1 (stereo not drawn) [Formula (87-1)]
64% | 3 | 2 | 1 | 1 | – | – | CCCCCCC1(C)c2cc(OC(F)(F)F)ccc2-c2c1c1c(c3cc(OC)ccc23)OC(c2ccc(OC)cc2)(c2ccc(OC)cc2)C=C1 (stereo not drawn) [Formula (90-1)]
57% | 4 | 3 | 1 | 1 | 75 s | – | CCCC1(CC)c2cc(OC)ccc2-c2c1c1c(c3cc(OC)ccc23)OC(c2ccc(OC)cc2)(c2ccc(N3CCOCC3)cc2)C=C1 (stereo not drawn) [Formula (91-1)]
51% and 53% | 4 | 3 | 2 | 1 | 188 s | 1.61 - and 0.89 - | COc1ccc(C2(c3ccc(OC)cc3)C=Cc3c4c(c5cc(N6CCOCC6)c(OC)cc5c3O2)-c2ccccc2C42CCCCCCC2)cc1 [Formula (D), reference compound]

SMILES | Residual ratio [1] | Dissolution for 15 min [2] | Dissolution for 30 min [2] | Dissolution for 45 min [2] | Dissolution for 1 hour [2] | Color fading half-life at 23°C [1] | Color developing density at 23°C [1]
CCC1(OCCOCCO[Si](C)(C)CC[Si](O[Si](C)(C)C)(O[Si](C)(C)C)O[Si](C)(C)C)c2ccccc2-c2c1c1c(c3cc(OC)c(N4CCOCC4)cc23)OC(c2ccc(OC)cc2)(c2ccc(OC)cc2)C=C1 (stereo not drawn) [Formula (C), reference compound] | 34% and 36% | 2 | 1 | 1 | 1 | – | 1.27 - and 0.70 -
